The assay relates to lymphocytes. The assay can be described thus: Mixed Lymphocyte Reaction (MLR) II (Example B). It is filed as cell-based. Conditions: concentration of compound required to inhibit the proliferation of lymphocytes by 50%, cells from two responding donors, 96 hours incubation, ³H-thymidine for the final 24 hours, read-out: IC₅₀. On the procedure: Mixed Lymphoctye Reaction (MLR) II
The MLR test was performed in 96-well microtitre plates with each well containing 3 x 10⁵ cells from each of two responding donors in a final volume of 0.2ml RPMI 1640 medium supplemented with 10% human serum, L-glutamine and penicillin/streptomycin. The compound under test was dissolved at 10mg/ml in ethanol and further diluted in RPMI 1640. The cells were incubated at 37 °C in a humidified atmosphere of 5% carbon dioxide for 96 hours. ³H-thymidine (0.5uCi) was added for the final 24 hours of the incubation to provide a measure of proliferation.
A selection of compounds were tested according to Example B. The concentration of compound required to inhibit the proliferation of lymphocytes by 50% was measured, and the results were as follows: […]
Turning to `C=CCC1C=C(C)CC(C)CC(OC)C2OC(O)(C(=O)C(=O)N3CCCCC3C(=O)OC(C(C)=CC3CCC(OCOCCOC)C(OC)C3)C(C)C(O)CC1=O)C(C)CC2OC` (stereo not drawn) [Example 27], the IC50 is less than 1000 nM.
For `C=CCC1C=C(C)CC(C)CC(OC)C2OC(O)(C(=O)C(=O)N3CCCCC3C(=O)OC(C(C)=CC3CCC(OC)C(OC)C3)C(C)C(OC)CC1=O)C(C)CC2OC` (stereo not drawn) [Example 1, 17-Allyl-1-hydroxy-12-[2-(3,4-dimethoxycyclohexyl)-1-methylvinyl]-14,23,25-trimethoxy-13,19,21,27-tetramethyl-11,28-dioxa-4-azatricyclo[22.3.1.0^4,9]octacos-18-ene-2,3,10,16-tetraone.], the IC50 was less than 1000 nM.
On to `CCCC1C=C(C)CC(C)CC(OC)C2OC(O)(C(=O)C(=O)N3CCCCC3C(=O)OC(C(C)=CC3CCC(O)C(OC)C3)C(C)CCC1=O)C(C)CC2OC` (stereo not drawn) [Example 12, 17-Propyl-1-hydroxy-12-[2-(4-hydroxy-3-methoxycyclohexyl)-1-methylvinyl]-23,25-dimethoxy-13,19,21,27-tetra methyl-11,28-dioxa-4-azatricyclo[22.3.1.0^4,9]octacos-18-ene-2,3,10,16-tetraone], for which the IC50 was less than 1000 nM.
Take `CCCC1C=C(C)CC(C)CC(OC)C2OC(O)(C(=O)C(=O)N3CCCCC3C(=O)OC(C(C)=CC3CCC(=O)C(OC)C3)C(C)CCC1=O)C(C)CC2OC` (stereo not drawn) [Example 18, 17-Propyl-1-hydroxy-12-[2-(3-methoxy-4-oxocyclohexyl)-1-methylvinyl]-23,25-dimethoxy-13,19,21,27-tetramethyl-11,28-dioxa-4-azatricyclo[22.3.1.0^4,9]octacos-18-ene-2,3,10,16-tetraone.]: the IC50 was less than 1000 nM.
Take `C=CCC1C=C(C)CC(C)CC(OC)C2OC(O)(C(C)CC2OC)C2(CO2)C(=O)N2CCCCC2C(=O)OC(C(C)=CC2CCC(O)C(OC)C2)C(C)C(O)CC1=O` (stereo not drawn) [Example 30, 17-Allyl-1,14-dihydroxy-12-[2-(4-hydroxy-3-methoxycyclohexyl)-1-methylvinyl]-23,25-dimethoxy-13,19,21, 27-tetramethyl-11,28-dioxa-4-aza-spiro[tricyclo [22.3.1.0^4,9]octacos-18-ene-2,2'-oxirane]-3,10,16-trione.]: the IC50 was less than 1000 nM.
As for `COC1CC(C=C(C)C2OC(=O)C3CCCCN3C(=O)C(=O)C3(O)OC(C(OC)CC(C)CC(C)=CC4=C(CC(O)C2C)OC(C[Se]c2ccccc2)C4)C(OC)CC3C)CCC1O` (stereo not drawn) [Example 32, 1,14-Dihydroxy-12-[2-(4-hydroxy-3-methoxycyclohexyl)-1-methylvinyl]-26,28-dimethoxy-18-[(phenylseleno)methyl]-13, 22,24,30-tetramethyl-11,17,31-trioxa-4-azatetracyclo[25.3.1. 0.^4,90.^16,20]hentriaconta-16(20),21-diene-2,3,10-trione.], the figure is less than 1000 nM; as for `C=CCC1C=C(C)CC(C)CC(OC)C2OC(O)(C(C)CC2OC)C(O)C(=O)N2CCCCC2C(=O)OC(C(C)=CC2CCC(O)C(OC)C2)C(C)CCC1=O` (stereo not drawn) [Example 15, 17-Allyl-1,2-dihydroxy-12-[2-(4-hydroxy-3-methoxy-cyclohexyl)-1-methylvinyl]-23,25-dimethoxy-13,19,21,27-tetra methyl-11,28-dioxa-4-azatricyclo-[22.3.1.0^4,9]octacos-18-ene-3,10,16-trione], less than 1000 nM; as for `C=CCC1C=C(C)CC(C)CC(OC)C2OC(O)(C(C)CC2OC)C(O)C(=O)N2CCCCC2C(=O)OC(C(C)=CC2CCC(O)C(OC)C2)C(C)C(O)CC1=O` (stereo not drawn) [Example 5, 17-Allyl-1,2,14-trihydroxy-12-[2-(4-hydroxy-3-methoxycyclohexyl)-1-methylvinyl]-23,25-dimethoxy-13,19,21,27-tetra methyl-11,28-dioxa-4-azatricyclo[22.3.1.0^4,9]octacos-18-ene-3,10,16-trione], less than 1000 nM.
Regarding `COC1CC(C=C(C)C2OC(=O)C3CCCCN3C(=O)C(=O)C3(O)OC(C(OC)CC(C)CC(C)=Cc4ccn(CCO)c4CC(O)C2C)C(OC)CC3C)CCC1O` (stereo not drawn) [Example 22, 1,14-Dihydroxy-12-[2-(4-hydroxy-3-methoxycyclohexyl)-1-methylvinyl]-26,28-dimethoxy-17-(2-hydroxyethyl)-13,22,24,30-tetramethyl-11,31-dioxa-4,17-diazatetracyclo[25.3.1.0.^4,9 .0^16,20]hentriaconta-16(20),18,21-triene-2,3,10-trione.], the IC50 was less than 1000 nM.
For `C=CCC1C=C(C)CC(C)CC(OC)C2OC(O)(C(C)CC2OC)C(O)C(=O)N2CCCCC2C(=O)OC(C(C)=CC2CCC(O)C(OC)C2)C(C)C(O)CC1O` (stereo not drawn) [Example 6, 17-Allyl-1,2,14,16-tetrahydroxy-12-[2-(4-hydroxy-3-methoxycyclohexyl)-1-methylvinyl]-23,25-dimethoxy-13,19,21, 27-tetramethyl-11,28-dioxa-4-azatricyclo[22.3.1.0^4,9] octacos-18-ene-3,10-dione], the IC50 is less than 1000 nM.
With `C=CCC1C=C(C)CC(C)CC(OC)C2OC(O)(C(=O)C(=O)N3CCCCC3C(=O)OC(C(C)=CC3CCC(OC)C(OC)C3)C(C)C(O)CC1=O)C(C)CC2OC` (stereo not drawn) [Example 2, 17-Allyl-1,14-dihydroxy-12-[2-(3,4-dimethoxycyclohexyl) -1-methylvinyl]-23,25-dimethoxy-13,19,21,27-tetramethyl-11, 28-dioxa-4-azatricyclo[22.3.1.0^4,9]octacos-18-ene-2,3,10, 16-tetraone], the IC50 is less than 1000 nM.
As for `C=CCC1C=C(C)CC(C)CC(OC)C2OC(O)(C(=O)C(=O)N3CCCCC3C(=O)OC(C(C)=CC3CCC(O)C(OC)C3)C(C)CCC1=O)C(C)CC2OC` (stereo not drawn) [Example 17, 17-Allyl-l-hydroxy-12-[2-(4-hydroxy-3-methoxycyclohexyl)-1-methylvinyl]-23,25-dimethoxy-13,19,21,27-tetramethyl-11,28-dioxa-4-azatricyclo[22.3.1.0^4,9]octacos-18-ene-2,3,10,16-tetraone], the figure is less than 1000 nM.

(Values after EP0346427B1, “MACROCYCLIC COMPOUNDS” (FISONS plc, priority 1987, dated 1989).)
